The record followed here is article PMC12195250, “Synthesis, Biological Evaluation, Molecular Dynamics, and QM-MM Calculation of Spiro-Acridine Derivatives Against Leishmaniasis” (Microorganisms, 2025).

The test system of data set [1] is L. amazonensis axenic amastigotes. In words: Anti-amastigote effect on axenic amastigotes, MTT. It counts as cell-based, Leishmania amazonensis. To be noted: L. amazonensis axenic amastigotes, 24 h, MTT. As for the experimental part: The amastigote forms of L. amazonensis were maintained under cryopreservation until they were transferred to an NNN medium (Novy–MacNeal–Nicolle) and incubated at 26 °C until the parasites reached the log growth phase. Subsequently, the suspension was transferred to Schneider culture medium (Sigma-Aldrich, St. Louis, MO, USA), supplemented with 20% inactivated fetal bovine serum and 0.2% gentamicin sulfate at 26 °C, causing the parasites to return to the log growth phase. The cultures were then maintained at 37 °C, producing a growth curve and the formation of the axenic amastigote strains.
The concentrations of the compounds AMTAC-02 and ACMD-03 capable of eliminating 50% of the cells in the cultures of L. amazonensis amastigotes (IC50) were determined using the MTT [3-(4,5-dimethylthiazol-2-yl)-2,5-diphenyltetrazolium bromide] (Sigma-Aldrich) reagent. In a 96-well plate, the assay was initiated by diluting both compounds to concentrations of 2, 4, 8, 16, and 32 μg/mL and 2.0 × 10^5 axenic amastigotes per well. The plates were incubated at 37 °C for 24 h. Then, 10 μL of MTT was added per well, and the cultures were re-incubated for 4 h. Subsequently, 50 μL of dimethyl sulfoxide was added to each well to solubilize the formazan crystals formed. The absorbances were measured using a SpectraMAX GeminiXS plate spectrophotometer (Molecular Devices LLC) at a wavelength of 570 nm. The negative control consisted of untreated cells, while the positive control was assessed by incubating the axenic amastigotes with the reference drug Amphotericin B® [13].

For data set [2], the system named is human red blood peripheral cells (O+). The data set can be described thus: Hemocompatibility (hemolysis) in red blood cells. It counts as cell-based. The note with it: 1 h at 37 °C. The protocol: The hemocompatibility of the spiro-acridine derivatives was determined using human red blood peripheral cells (O+) from healthy adults. The erythrocytes were diluted in phosphate-buffered saline (PBS) to a concentration of 5% in an 80 µL suspension and subsequently incubated with 20 µL of different concentrations of spiro-acridine derivatives and Amphotericin B® (400, 200, 100, 50, 25, 12,5, 6,25 and 3,12 μg/mL). Afterward, the samples were incubated for 1 h at 37 °C in a B.O.D incubator, and the reaction was stopped by adding 200 μL of PBS (1.5 mM KH2PO4, 8.1 mM Na2HPO4, 136.9 mM NaCl, and 2.6 mM KCl, pH 7.2). The samples were centrifuged at 2000 rpm for 10 min, at room temperature. The supernatants were collected and subjected to spectrophotometry using a spectrophotometer (model Biosystems ELx800, Curitiba, PR, Brazil) at 540 nm. The hemolysis percentage was determined as [(Abssam − Abscon)/(Abstot − Abscon) × 100], where Abssam refers to the absorbance of the sample, Abscon to the absorbance of the blank control (without compounds), and Abstot to the absorbance of total hemolysis (obtained by replacing the sample solution with an equal volume of Milli-Q water). The results were expressed as average hemolytic concentration (HC50), considering the positive control as 100% hemolysis.

For data set [3], the system named is L. infantum promastigotes (Strain MHOM/BR/70/BH46). The data set can be described thus: Anti-promastigote effect, Neubauer chamber counting. It counts as cell-based, Leishmania infantum. The note with it: 72 h incubation, read-out: L. infantum IC50PRO. The protocol:
(§1) The promastigote cultures of L. infantum (Strain MHOM/BR/70/BH46) and L. amazonensis (Strain MHOM/BR/PH8) were kept in Schneider medium (Sigma-Aldrich, St. Louis, MO, USA) supplemented with 20% fetal bovine serum (FBS) and 1% streptomycin/penicillin in a B.O.D. incubator (J. Prolab, model JP. 100 LBCM/CPAM) at 26 °C. The promastigote strains were used in the exponential growth phase in all stages for experimental purposes.
(§2) The Neubauer chamber method was used to assess the inhibitory concentrations of the synthesized spiro-acridines capable of eliminating 50% of the promastigotes in cultures of L. amazonensis and L. infantum (IC50) strains. Promastigotes from both species were collected, counted, and diluted in Schneider’s medium (Sigma-Aldrich, St. Louis, MO, USA) supplemented with 20% fetal bovine serum (FBS) at a final concentration of 1 × 10^6 cells/mL. The evaluated promastigotes were then exposed to different concentrations of the tested compounds (10, 5, 2.5, 1.25, and 0.625 μg/mL). The positive control used the commercial drug Amphotericin B®, while the negative control consisted of promastigotes incubated in Schneider’s medium alone. After 72 h of incubation at 25 °C, culture growth was observed by counting the viable cells using a Neubauer chamber and calculated using the following Equation (1): No. Leishmania/mL = No. of cells counted × No. of Neubauer chamber(1) quadrants × the dilution used × 10^4 (Neubauer chamber correction factor)
(§3) The concentration parameter that inhibits 50% of parasite growth (IC50) was used to estimate the growth inhibition of the promastigote species of Leishmania sp. Thus, IC50 was determined by linear regression analysis with SPSS 8.0 software for Windows. Each test was performed in two independent experiments, with different cultures and in technical triplicate.

Data set [4] relates to J774 macrophages infected with L. amazonensis amastigotes. In words: Cytokine profile by cytometry bead assay (CBA). It counts as cell-based. To be noted: 24 h; for IL-6 expression: 8 µg/mL, versus untreated infected macrophages; for modulation of the IL-2 response: basal or infected macrophages, 2, 4 and 8 µg/mL; for IL-4 expression / IL-10 expression / TNF-α expression: infected macrophages, 2, 4 and 8 µg/mL; for TNF-α expression: versus untreated infected. The protocol: The assessment of the influence of spiro-acridine derivatives on the cytokine profile of immunological responses was carried out by the quantification of the cytokines IL-2, IL-4, IL-6, IL-10, IL-17A, INF-γ, and TNF-α in supernatants of cell cultures of J774 macrophages infected with L. amazonensis amastigotes through cytometry bead assay (CBA), according to the manufacturer’s instructions (BD Bioscience, Franklin Lakes, NJ, USA). The cells were adhered to a plate, infected with amastigotes of L. amazonensis, and treated with the spiro-acridines under analysis in the following concentrations: 2, 4, and 8 μg/mL. After the 24-h treatment period, 50 μL of the supernatant from each well was transferred to a conical tube, while 50 μL of the capture bead mixture and 50 μL of the detection reagent were added. The samples were incubated for 2 h at room temperature and protected from light. After incubation, 500 μL of washing buffer was added to each tube, followed by centrifugation for 5 min. The supernatant was discarded, and 300 μL of washing buffer was added. A calibration curve containing the following concentrations of each cytokine was added to the experiment: 0, 20, 40, 80, 156, 312.5, 625, 1250, 2500, and 5000 pg/mL. Uninfected and untreated macrophages were used as the negative control, while the untreated macrophages infected with L. amazonensis were used as the positive control. The fluorescence intensity in each sample was captured on the BD LRS II FORTESSA flow cytometer using the DIVA program version 7 (BD Bioscience), and the fluorescence data was processed using the FCAP array program version 3 (BD Bioscience). The experiments were performed in triplicate.

Data set [5] deals with L. amazonensis promastigotes (Strain MHOM/BR/PH8). The data set can be described thus: Anti-promastigote effect, Neubauer chamber counting. It counts as cell-based, Leishmania amazonensis. The note with it: 72 h incubation, read-out: L. amazonensis IC50PRO. As for the experimental part:
as §1, §2, §3

Like-named read-outs stand apart in the source and are kept apart here.

Take `COc1ccc(/C=N/N2C(=O)C(C#N)=CC23c2ccccc2Nc2ccccc23)cc1` [AMTAC-02, (E)-1′-((4-methoxybenzylidene)amino)-5′-oxo-1′,5′-dihydro-10H-spiro[acridine-9,2′-pyrrole]-4′-carbonitrile]: in data set [1], the IC50 is 13.5 µM. Further, the IC50 in data set [1] (Leishmania amazonensis) lay in the range of 10.5 to 13.5 µM. Besides, in data set [2], the “HC50 (concentration capable of promoting 50% hemolysis)” value was more than 400 µM. Besides, the IC50 in data set [3] (Leishmania infantum) was determined as 2.22 µM. Moreover, in data set [4], the IL-6 expression entry was “significant decrease in IL-6 expression”, the “modulation of the IL-2 response” value is recorded as “did not demonstrate a modulation of the IL-2 response”, the IL-4 expression result was “Neither of the two molecules significantly influenced IL-4 expression” and the IL-10 expression result is on record as “no significant increase in IL-10 expression”. In addition, the TNF-α expression result in data set [4] is reported as “significant reduction in TNF-α expression”. Also, in data set [5] (Leishmania amazonensis), the IC50 came out at 0.73 µM.

Compound `N#CC1=CC2(c3ccccc3Nc3ccccc32)N(c2ccc(Cl)cc2)C1=O` [ACMD-03, (E)1′-(4-chlorophenyl)-5′-oxo-1′, 5′-dihydro-10H-spiro{acridine-9,2′-pyrrole]-4′-carbonitrile] showed an IC50 in data set [1] of 10.5 µM. The “HC50 (concentration capable of promoting 50% hemolysis)” value in data set [2] was more than 400 µM. In data set [3], the IC50 worked out at 7.82 µM. In data set [4], the IL-6 expression result was “significant decrease in IL-6 expression”; the “modulation of the IL-2 response” value is reported as “did not demonstrate a modulation of the IL-2 response”; the IL-4 expression result is “Neither of the two molecules significantly influenced IL-4 expression”; the IL-10 expression entry is “significantly increased the expression of IL-10 at concentrations of 4 and 8 µg/mL”. Moreover, in data set [4], the TNF-α expression entry was “significant reduction in TNF-α expression”. For the same compound, in data set [4] (versus basal and parasite-infected macrophages), the “IL-17A level (Th17 response)” value is given as “significant increase in this interleukin at a concentration of 4 µg/mL”. Besides, the IC50 in data set [5] was found to be 11 µM.
